Data published in ChEMBL document CHEMBL1141353, “Three biscembranoids and their monomeric counterpart cembranoid, a biogenetic Diels-Alder precursor, from the soft coral Sarcophyton elegans” (J Nat Prod, 2007).
Active and inactive are the calls of the source. The calls are words filed in the database; no cut-off is given here.

Legend:
[1] = tested on: Escherichia coli; assay: Antibacterial activity against Escherichia coli at 1.5 ug/ml; type: functional, organism-based
[2] = Toxicity in brine shrimp assessed as survival rate after 24 hrs; type: organism-based; settings: artemia salina, in vivo

| Compound | Activity [1] | LC50 at 24 h [2] [nM] |
| --- | --- | --- |
| COC(=O)[C@]12CC(=O)[C@H](C(C)C)CC(=O)[C@H](C)CCC[C@H](C)CC(=O)[C@H]1CC(C)=C1C[C@H](O)[C@@]3(C)O[C@@H](CC/C(C)=C/[C@@H]12)[C@@]1(C)CC[C@@H]3O1 | Active |  |
| COC(=O)[C@]12CC(=O)[C@H](C(C)C)CC(=O)[C@H](C)CCC[C@H](C)CC(=O)[C@H]1CC(C)=C1C[C@H](O)[C@]3(C)O[C@@H]3CC[C@]3(C)O[C@@H]3CC/C(C)=C/[C@@H]12 [DIEPOXYNYALOLIDE] |  | 1500 |
| COC(=O)/C1=C/C(=O)C[C@@H](C)CCC[C@@H](C)C(=O)C[C@@H](C(C)C)C(=O)C1 [METHYL TETRAHYDROSARCOATE] |  | 1500 |
